The values that follow come from ChEMBL document CHEMBL1158685, “Potent CYP3A4 inhibitory constituents of Piper cubeba” (J Nat Prod, 2005).

The target in assay [1] is Cytochrome P450 3A4 (Homo sapiens, UniProt P08684). Briefly: Inhibition of human liver microsome CYP3A4 in assessed as [14C]formaldehyde formation. In kind it is ADME, microsomes. A general note: Liver microsomes are a subcellular fraction often used to study metabolism.
Assay [2] concerns the target Cytochrome P450 2D6 (Homo sapiens, UniProt P10635). Briefly: Inhibition of human liver microsome CYP2D6 in assessed as [14C]formaldehyde formation. It counts as ADME, microsomes.

Bounds are passed on as bounds.

Sequence of Cytochrome P450 2D6 (P10635 whole entry): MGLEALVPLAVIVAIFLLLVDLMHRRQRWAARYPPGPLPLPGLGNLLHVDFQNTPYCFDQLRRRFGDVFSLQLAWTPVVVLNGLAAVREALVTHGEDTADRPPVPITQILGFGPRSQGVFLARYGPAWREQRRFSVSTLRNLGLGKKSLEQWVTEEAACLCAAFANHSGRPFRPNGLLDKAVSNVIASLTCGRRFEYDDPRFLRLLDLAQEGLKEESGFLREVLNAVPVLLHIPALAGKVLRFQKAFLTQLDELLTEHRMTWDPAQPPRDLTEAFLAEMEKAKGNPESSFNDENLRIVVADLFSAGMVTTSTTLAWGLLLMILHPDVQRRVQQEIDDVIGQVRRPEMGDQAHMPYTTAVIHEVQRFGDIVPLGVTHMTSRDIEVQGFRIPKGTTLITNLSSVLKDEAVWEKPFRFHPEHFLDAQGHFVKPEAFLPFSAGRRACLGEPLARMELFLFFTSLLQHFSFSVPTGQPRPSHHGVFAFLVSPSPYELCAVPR
Sequence of Cytochrome P450 3A4 (P08684 whole entry): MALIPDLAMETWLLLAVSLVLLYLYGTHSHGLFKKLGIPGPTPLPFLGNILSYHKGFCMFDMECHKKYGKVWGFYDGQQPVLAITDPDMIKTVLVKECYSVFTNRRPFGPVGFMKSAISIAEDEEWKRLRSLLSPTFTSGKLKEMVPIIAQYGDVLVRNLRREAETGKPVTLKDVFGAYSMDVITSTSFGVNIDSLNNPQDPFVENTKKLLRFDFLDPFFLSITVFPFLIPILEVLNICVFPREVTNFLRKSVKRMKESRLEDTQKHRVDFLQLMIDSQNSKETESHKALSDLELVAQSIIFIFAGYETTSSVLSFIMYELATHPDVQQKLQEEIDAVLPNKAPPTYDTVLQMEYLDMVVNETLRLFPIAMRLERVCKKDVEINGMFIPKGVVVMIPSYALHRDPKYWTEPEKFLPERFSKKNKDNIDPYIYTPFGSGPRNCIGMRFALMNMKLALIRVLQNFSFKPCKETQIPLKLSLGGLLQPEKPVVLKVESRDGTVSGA

In general, IC50 refers to the midpoint of a concentration-inhibition curve. `O[C@H]1OC[C@H](Cc2ccc3c(c2)OCO3)[C@H]1Cc1ccc2c(c1)OCO2`: the IC50 in assay [1] is 9.1 µM; in assay [2], 35.5 µM. In the case of `COc1cc(C[C@@H](CO)[C@H](CO)Cc2ccc3c(c2)OCO3)cc(OC)c1OC`, the IC50 in assay [1] is 0.8 µM; in assay [2], more than 100 µM. The like results for `COc1cc(C[C@H]2C(=O)OC[C@@H]2Cc2ccc3c(c2)OCO3)cc(OC)c1OC` were, in that order, 1 µM and 95.7 µM. The like results for `COc1cc(C[C@H]2COC(=O)[C@@H]2Cc2cc(OC)c(OC)c(OC)c2)cc(OC)c1OC` were, in that order, 14.9 µM and more than 100 µM. Regarding `COc1cc(C[C@H]2C(O)OC[C@@H]2Cc2ccc3c(c2)OCO3)cc(OC)c1OC` (stereo not given in full), the values for the concentration for half-maximal inhibition (IC50) in assay [1] and in assay [2] were 0.83 µM and more than 100 µM, respectively. The like results for `COc1cc(C[C@H]2COC(O)[C@@H]2Cc2cc(OC)c(OC)c(OC)c2)cc(OC)c1OC` (stereo not given in full) were, in that order, 15 µM and more than 100 µM. In the case of `COc1cc(OC)c(OC)cc1CC(C)=O`, the IC50 in assay [1] is 28.7 µM; in assay [2], more than 100 µM. With `COc1cc(C[C@H]2COC(=O)[C@@H]2Cc2cc(OC)c3c(c2)OCO3)cc(OC)c1O`, in assay [2], the IC50 is more than 100 µM. As for `COc1cc(C[C@@H]2[C@@H](Cc3cc(OC)c4c(c3)OCO4)CO[C@@H]2O)cc(OC)c1OC`, the half-inhibitory concentration (IC50) in assay [1] is 0.83 µM; in assay [2], more than 100 µM. On to `CC1=C[C@@H](O)[C@@]23O[C@]2(C)C[C@@H]2OC(=O)C(C)=C2C[C@@H]13`, for which the IC50 in assay [1] was 98.2 µM; in assay [2], more than 100 µM. Regarding `CC1=CC(=O)C2=C(C)C[C@@H]3OC(=O)C(C)=C3C[C@@H]12`, the IC50 in assay [1] is 8.8 µM; in assay [2] it was more than 100 µM.

As to `CO[C@@H]1OC[C@H](Cc2ccc3c(c2)OCO3)[C@H]1Cc1ccc2c(c1)OCO2`, the IC50 was 7.7 µM in assay [1] and more than 100 µM in assay [2].

Consider `OC[C@H](Cc1ccc2c(c1)OCO2)[C@H](CO)Cc1ccc2c(c1)OCO2` [DIHYDROCUBEBIN], for which the IC50 in assay [1] is 9.5 µM; in assay [2] it was 17.5 µM. The like results for `CCOc1cc(C[C@H]2COC(O)[C@@H]2Cc2cc(OC)c(OC)c(OC)c2)cc2c1OCO2` (stereo not given in full) [ETHOXYCLUSIN] were, in that order, 0.44 µM and 87.9 µM.

Take `O=C1OC[C@H](Cc2ccc3c(c2)OCO3)[C@H]1Cc1ccc2c(c1)OCO2` [HINOKININ]: the IC50 in assay [1] came to 8 µM; in assay [2], 26.5 µM.

Consider `COc1cc(OC)c([C@@H]2[C@H](C)[C@@H](C)[C@H]2c2cc(OC)c(OC)cc2OC)cc1OC` [MAGNOSALIN], for which the half-maximal inhibitory concentration (IC50) in assay [1] was 85.4 µM; in assay [2], more than 100 µM. The like results for `COc1cc([C@H]2OC[C@@H]3C(c4cc(OC)c(O)c(OC)c4)OC[C@H]23)ccc1O` (stereo not given in full) [MEDIORESINOL] were, in that order, 13.7 µM and more than 100 µM. The like results for `C/C=C/c1cc(OC)c(OC)cc1OC` [TRANS-ASARONE] were, in that order, 92.3 µM and more than 100 µM.
